“Also recorded” adds a separate entry of the source.
Tests used:
[1] = tested on: rabbit intralobar pulmonary arteries; test: Promotion of 5,6-EET induced vasoconstriction in rabbit intralobar pulmonary artery rings; details: compound at 1 μM; rabbit PA rings
Experimental: To obtain the pulmonary arteries used in the study, adult New Zealand white rabbits (2.4-3.0 kg) were anesthetized with pentobarbital sodium (15 mg/kg iv) for 10 minutes after intramuscular administration of ketamine (8 mg/kg) and xylazine (2 mg/kg). A tracheostomy was performed and a tracheal cannula was inserted. The animals were ventilated via a fixed volume ventilator (Harvard) with room air (tidal volume: 8-10 ml/kg at 15 cycles/min). A catheter was inserted into a carotid artery for administration of heparin (1,000 units, iv) 10 minutes before exsanguination of the animal. After exsanguination, the lungs were removed for isolation of the pulmonary vessels. Intralobar, second order pulmonary arteries (PA) were obtained as described previously (Stephenson A. H., et al., American Journal of Physiology 284: H2153-H2161, 2003). […] Ring tension was measured from one of the support wires attached to an isometric force transducer (FT03, Grass) and recorded continuously on a polygraph (Grass). Each ring was placed under a basal (passive) tension (0.75 to 1.5 g) determined to result in a maximal contractile response to KCl (60 mM). […]

[2] = tested on: rabbit intralobar pulmonary arteries; test: Inhibition of agonist-induced vasoconstriction in rabbit intralobar pulmonary artery rings (ring tension); details: compound at 10 μM; for inhibition of 5,6-EET-induced vasoconstriction (concentration-response curve shifted to the right): 5,6-EET 1×10^−8-1×10^−5 M, rabbit PA rings
Experimental: To obtain the pulmonary arteries used in the study, adult New Zealand white rabbits (2.4-3.0 kg) were anesthetized with pentobarbital sodium (15 mg/kg iv) for 10 minutes after intramuscular administration of ketamine (8 mg/kg) and xylazine (2 mg/kg). A tracheostomy was performed and a tracheal cannula was inserted. The animals were ventilated via a fixed volume ventilator (Harvard) with room air (tidal volume: 8-10 ml/kg at 15 cycles/min). A catheter was inserted into a carotid artery for administration of heparin (1,000 units, iv) 10 minutes before exsanguination of the animal. After exsanguination, the lungs were removed for isolation of the pulmonary vessels. Intralobar, second order pulmonary arteries (PA) were obtained as described previously (Stephenson A. H., et al., American Journal of Physiology 284: H2153-H2161, 2003). Briefly, intralobar PA (1-2 mm OD) were dissected free of extravascular tissue, cut into rings 3-4 mm in length and suspended in water-jacketed tissue chambers containing 10 ml of a physiological salt solution (PSS) composed of (in mM): NaCl (118.3), KCl (4.7), CaCl2 (2.5), MgS04 (1.2), KH2P04 (1.2), NaHC03 (25) Na-EDTA (0.026), and glucose (11.1). The PSS was gassed with 95% O2-5% CO2 (pH: 7.4) and maintained at 37° C. Each ring was mounted between two stainless steel support wires. Ring tension was measured from one of the support wires attached to an isometric force transducer (FT03, Grass) and recorded continuously on a polygraph (Grass). Each ring was placed under a basal (passive) tension (0.75 to 1.5 g) determined to result in a maximal contractile response to KCl (60 mM). In some studies, basal tension was increased with 25 mM KCl to achieve a submaximal increase in active tension. At basal tension, concentrations of 5,6-EET (1×10^−8-1×10^−5 M, delivered in 1 μl of absolute ethanol) were added individually or cumulatively to the rings in 10 ml PSS. Total ethanol concentration in the tissue chambers never exceeded 0.1%. In these experiments, 5,6-EET was added in the presence or absence of the selective 5,6-EET inhibitors 13-HTEC (10 μM) and 14-HTYC (10 μM). […] PA rings were also exposed to various concentrations of PGF2α, (Sigma Chemical Company, St. Louis, Mo.), 14,15-EET (Cayman Chemical, Ann Arbor, Mich.), 5-hydroxytryptamine (5-HT) (Sigma Chemical Company, St. Louis, Mo.), and norepinephrine (NE) (Sigma Chemical Company, St. Louis, Mo.).

[3] = tested on: isolated perfused rabbit lungs; test: Hypoxia-induced pulmonary vasoconstriction in isolated perfused rabbit lungs (with L-NAME); details: compound at 10 μM in perfusate, L-NAME 100 μM
Experimental: Adult New Zealand white rabbits were prepared as described in Example 2. After exsanguination was completed, a midsternal thoracotomy was performed, and the heart and lungs were removed en bloc. Fluid-filled catheters were placed into the PA and the left atrium for lung perfusion and pressure measurements. The isolated lungs were ventilated at 10 ml/kg with 26-30 breaths/min of 15% O2-6% CO2-79% N2 to achieve a perfusate pH of 7.33±0.01, PCO2 of 38.1±2.8 mmHg, and PO2 of 107.3±5.9 mmHg. The lungs were perfused in a humidified chamber (34-37° C.) in a recirculating manner with 150 ml of PSS containing (in mM) 118.3 NaCl, 4.7 KCl, 2.5 CaCl2, 1.2 MgSO4, 1.2 KH2PO4, 25.0 NaHCO3, 0.026 Na-EDTA, and 11.1 glucose (pH 7.4) to which hetastarch was added for maintenance of oncotic pressure. […] Pulmonary arterial (Ppa, inflow), pulmonary venous (Pla, outflow), and airway pressures were recorded continuously. Microvascular pressure (Pmv) was measured by the double occlusion method (Dawson C. A., et al., Journal of Applied Physiology 64: 274-284, 1988; Wurtz M. M., et al., J Appl Physiol 73: 2135-2141, 1992). […] Total PVR was calculated as (Ppa Pla)/perfusate flow rate. Arterial PVR was calculated as (Ppa Pmv)/perfusate flow rate, and venous PVR was calculated as (Pmv Pla)/perfusate flow rate (Stephenson A. H., et al., Am J Physiol 275: H100-H109, 1998).

[4] = tested on: mice; details: Pokreisz et al. 2006; cited from earlier work

## CCCCCC1OC1CCCCCCC/C=C\CCCC(=O)O (stereo not shown) [14,15-EEZE, 14,15-epoxyeicosa-5(Z)-enoic acid]
[1]
  effect on vasoconstrictor activity of exogenously administered 5,6-EET (concentration-response curve shifted to the left): significantly promoted or agonized

## CCCCCCCOCCCCCCC/C=C\CCCC(=O)O [Compound 13-HTEC, 13-heptyloxytridec-5(Z)-enoic acid]
[2]
  inhibition of 5-hydroxytryptamine (5-HT)-mediated vasoconstriction of PA: is not inhibited; also recorded: does not inhibit
  inhibition of 14,15-EET-mediated vasoconstriction of PA: is not inhibited; also recorded: does not inhibit
  inhibition of PGF2α-mediated vasoconstriction of PA: is not inhibited; also recorded: does not inhibit
  inhibition of norepinephrine (NE)-mediated vasoconstriction of PA: Minimal effects; also recorded: may have partially inhibited
  inhibition of 5,6-EET-induced vasoconstriction (concentration-response curve shifted to the right): specifically inhibit; also recorded: significantly inhibited
[3]
  effect on pulmonary arterial inflow (Ppa) pressure / hypoxia-induced vasoconstriction: hypoxia-induced vasoconstriction is reduced; also recorded: significantly decreased

## CCCCCCOCCCCCCCCC#CCCCC(=O)O [Compound 14-HTYC, 14-(hexyloxy)tetradec-5-ynoic acid]
[2]
  inhibition of 5,6-EET-induced vasoconstriction (concentration-response curve shifted to the right): specifically inhibit

## C#CCOc1ccccc1CCCCCC(=O)NS(C)(=O)=O [MSPPOH, N-methyl sulfonyl-6-(2-propargyloxyphenyl)hexanamide]
[4]
  effect on acute hypoxia-induced pulmonary hypertension: significantly reduced
  effect on chronic hypoxia-induced pulmonary vascular remodeling: significantly reduced

— US20080095711A1, “Modulators of Pulmonary Hypertension” (priority 2006, published 2008)
